Assay results taken from PMC11458808, “Identification and development of a series of disubstituted piperazines for the treatment of Chagas disease” (European Journal of Medicinal Chemistry, 2022).
≈ marks a conversion by molar mass, not a printed value.

Tests used:
[1] = tested on: intracellular T. cruzi X10/7 A1 amastigotes; assay: Intracellular T. cruzi assay; type: cell-based, Trypanosoma cruzi; conditions: for EC50: Trypanosoma cruzi, read-out: T. cruzi (pEC50) (converted); for EC50 / T. cruzi (pEC50): potency against intracellular T. cruzi amastigotes, at least three independent replicates, standard deviations ≤0.2
Method: 1.1 Intracellular T. cruzi assay: Potency against intracellular T. cruzi X10/7 A1 amastigotes was determined as described previously with as sole modification that the compound treatment duration was increased from 72h to 96h.

[2] = Intrinsic clearance in mouse liver microsomes; type: in vitro ADME; conditions: for Mouse CLi: mouse liver microsomal intrinsic clearance
Method: 2.2 Intrinsic clearance: This assay was conducted as previously described in [5].

[3] = Aqueous (kinetic) solubility by CAD; type: physicochemical; conditions: kinetic solubility measured by CAD
Method: 2.1 Aqueous solubility: This assay was conducted as previously described in [4].

[4] = ChromLogD pH7.4 (chromatographic hydrophobicity index); type: physicochemical; conditions: pH 7.4, CHIpH7.4 × 0.0857–2; for chromatographic logD: read-out: ChromlogDpH7.4

| SMILES | Mouse CLi [2] [mL/min/g] | solubility [3] [µM] | chromatographic logD [4] | Clearance (mouse liver microsomal) ([2]; mouse, microsomes) [mL/min/g] | EC50 [1] [µM] | T. cruzi (pEC50) [1] | ChromlogDpH7.4 [4] | Activity in the intracellular T. cruzi assay (in words) ([1]; purified compound) |
| --- | --- | --- | --- | --- | --- | --- | --- | --- |
| COc1ccc(S(=O)(=O)Nc2ccc(CN3CCN(C(=O)C4CCCN(C)C4)CC3)cc2)cc1 (stereo not shown) [Compound 20, 4-methoxy-N-(4-((4-(1-methylpiperidine-3-carbonyl)piperazin-1-yl)methyl)phenyl)benzenesulfonamide] | 1.5 | ≥ 526 | 2.3 |  | > 50.1 |  |  |  |
| COc1ccc(S(=O)(=O)Nc2ccc(CN3CCN(C(=O)C4CN(C(C)=O)C4)CC3)cc2)cc1 [Compound 21, N-(4-((4-(1-acetylazetidine-3-carbonyl)piperazin-1-yl)methyl)phenyl)-4-methoxybenzenesulfonamide] | 1.0 | ≥ 511 | 2.6 |  | > 50.1 |  |  |  |
| COc1ccc(S(=O)(=O)Nc2ccc(CN3CCN(C(=O)C4CC(O)(C(F)(F)F)C4)CC3)cc2)cc1 (stereo not shown) [Compound 22, N-(4-((4-(3-hydroxy-3-(trifluoromethyl)cyclobutane-1-carbonyl)piperazin-1-yl)methyl)phenyl)-4-methoxybenzenesulfonamide] | 8.0 | ≥ 374 | 4.3 |  | > 50.1 |  |  |  |
| Cc1ccc(S(=O)(=O)Nc2ccc(CN3CCN(C(=O)C4CCc5ccccc54)CC3)cc2)cc1 (stereo not shown) [Compound 24, N-(4-((4-(2,3-dihydro-1H-indene-1-carbonyl)piperazin-1-yl)methyl)phenyl)-4-methylbenzenesulfonamide] | >50 | 35 (≈ 17.1 µg/mL) | 5.8 |  | 3.98 |  |  |  |
| Cc1ccc(S(=O)(=O)Nc2ccc(CN3CCN(C(=O)Cc4coc5ccccc45)CC3)cc2)cc1 [Compound 25] | >50 | 22 (≈ 11.1 µg/mL) |  |  |  | 5.2 | 5.7 |  |
| CC#CC(=O)N1CCN(Cc2ccc(NS(=O)(=O)c3ccc(C)cc3)cc2)CC1 [Compound 26, N-(4-((4-(but-2-ynoyl)piperazin-1-yl)methyl)phenyl)-4-methylbenzenesulfonamide] | >50 | 367 (≈ 151 µg/mL) | 4.4 |  | > 50.1 |  |  | inactive |
| Cc1ccc(S(=O)(=O)Nc2ccc(CN[C@H]3CCN(C(=O)c4cccc(Cl)c4)C3)cc2)cc1 [Compound 31, (S)-N-(4-(((1-(3-chlorobenzoyl)pyrrolidin-3-yl)amino)methyl)phenyl)-4-methylbenzenesulfonamide] | >50 | 72 (≈ 34.8 µg/mL) | 4.9 |  | 10 |  |  |  |
| Cc1ccc(S(=O)(=O)Nc2ccc(CN[C@@H]3CCN(C(=O)c4cccc(Cl)c4)C3)cc2)cc1 [Compound 32, (R)-N-(4-(((1-(3-chlorobenzoyl)pyrrolidin-3-yl)amino)methyl)phenyl)-4-methylbenzenesulfonamide] | 48 | 75 (≈ 36.3 µg/mL) | 4.9 |  | 15.8 |  |  |  |
| Cc1ccc(S(=O)(=O)Nc2ccc(CN(C)[C@H]3CCN(C(=O)c4cccc(Cl)c4)C3)cc2)cc1 [Compound 33, (S)-N-(4-(((1-(3-chlorobenzoyl)pyrrolidin-3-yl)(methyl)amino)methyl)phenyl)-4-methylbenzenesulfonamide] | >50 | 27 (≈ 13.4 µg/mL) | 5.7 |  | 6.31 |  |  |  |
| Cc1ccc(S(=O)(=O)Nc2ccc(CN3C[C@@H]4CN(C(=O)c5cccc(Cl)c5)C[C@@H]4C3)cc2)cc1 [Compound 35, N-(4-(((3aR,6aS)-5-(3-chlorobenzoyl)hexahydropyrrolo[3,4-c]pyrrol-2(1H)-yl)methyl)phenyl)-4-methylbenzenesulfonamide] | >50 | 25 (≈ 12.8 µg/mL) | 5.8 |  | 6.31 |  |  |  |
| Cc1ccc(S(=O)(=O)Nc2ccc(NC3CCN(C(=O)c4cccc(Cl)c4)CC3)cc2)cc1 [Compound 36, N-(4-((1-(3-chlorobenzoyl)piperidin-4-yl)amino)phenyl)-4-methylbenzenesulfonamide] | 25 | 18 (≈ 8.71 µg/mL) | 5.6 |  | 20 |  |  |  |
| Cc1ccc(S(=O)(=O)Nc2ccc(CN3CCC(NC(=O)c4cccc(Cl)c4)CC3)cc2)cc1 [Compound 37, 3-chloro-N-(1-(4-((4-methylphenyl)sulfonamido)benzyl)piperidin-4-yl)benzamide] | 37 | 42 (≈ 20.9 µg/mL) | 5.3 |  | 3.16 |  |  |  |
| Cc1ccc(S(=O)(=O)Nc2ccc(CNC3CN(C(=O)c4cccc(Cl)c4)C3)cc2)cc1 [Compound 38, N-(4-(((1-(3-chlorobenzoyl)azetidin-3-yl)amino)methyl)phenyl)-4-methylbenzenesulfonamide] | >50 | 70 (≈ 32.9 µg/mL) | 4.8 |  | 12.6 |  |  |  |

Now from value to compound, other results behind:

| Mouse CLi [2] [mL/min/g] | solubility [3] [µM] | chromatographic logD [4] | Clearance (mouse liver microsomal) ([2]; mouse, microsomes) [mL/min/g] | SMILES | EC50 [1] [µM] | T. cruzi (pEC50) [1] | ChromlogDpH7.4 [4] | Activity in the intracellular T. cruzi assay (in words) ([1]; purified compound) |
| --- | --- | --- | --- | --- | --- | --- | --- | --- |
| >50 | 116 (≈ 54 µg/mL) | 4.6 |  | COc1ccc(S(=O)(=O)Nc2ccc(CN3CCN(C(=O)c4ccccc4)CC3)cc2)cc1 [Compound 10, N-(4-((4-benzoylpiperazin-1-yl)methyl)phenyl)-4-methoxybenzenesulfonamide] | 3.16 |  |  |  |
| >50 | 76 (≈ 36.8 µg/mL) | 4.8 |  | COc1ccc(S(=O)(=O)Nc2ccc(CN3CCN(C(=O)c4cccc(F)c4)CC3)cc2)cc1 [Compound 11, N-(4-((4-(3-fluorobenzoyl)piperazin-1-yl)methyl)phenyl)-4-methoxybenzenesulfonamide] | 0.631 |  |  |  |
| >50 | 18 (≈ 9.54 µg/mL) | 5.1 |  | COc1ccc(S(=O)(=O)Nc2ccc(CN3CCN(C(=O)c4ccc(OC)c(Cl)c4)CC3)cc2)cc1 [Compound 13, N-[4-[[4-(3-chloro-4-methoxy-benzoyl)piperazin-1-yl]methyl]phenyl]-4-methoxy-benzenesulfonamide] | 3.16 |  |  |  |
| >50 | 27 (≈ 14.3 µg/mL) | 5.2 |  | COc1ccc(S(=O)(=O)Nc2ccc(CN3CCN(C(=O)c4cc(Cl)ccc4OC)CC3)cc2)cc1 [Compound 14, N-(4-((4-(5-chloro-2-methoxybenzoyl)piperazin-1-yl)methyl)phenyl)-4-methoxybenzenesulfonamide] | 2 |  |  |  |
| >50 | 13 (≈ 6.68 µg/mL) | 5.8 |  | COc1ccc(S(=O)(=O)Nc2ccc(CN3CCN(C(=O)c4ccc(C)c(Cl)c4)CC3)cc2)cc1 [Compound 15, N-(4-((4-(3-chloro-4-methylbenzoyl)piperazin-1-yl)methyl)phenyl)-4-methoxybenzenesulfonamide] | 1.26 |  |  |  |
| >50 | 171 (≈ 85.7 µg/mL) | 4.3 |  | COc1ccc(S(=O)(=O)Nc2ccc(CN3CCN(C(=O)c4cncc(Cl)c4)CC3)cc2)cc1 [Compound 16, N-(4-((4-(5-chloronicotinoyl)piperazin-1-yl)methyl)phenyl)-4-methoxybenzenesulfonamide] | 1 |  |  |  |
| 6.4 | 122 (≈ 63.9 µg/mL) | 4.9 |  | COc1ccc(S(=O)(=O)Nc2ccc(CN3CCN(C(=O)c4cc(C(F)(F)F)n[nH]4)CC3)cc2)cc1 [Compound 17, 4-methoxy-N-(4-((4-(5-(trifluoromethyl)-1H-pyrazole-3-carbonyl)piperazin-1-yl)methyl)phenyl)benzenesulfonamide] | 6.31 |  |  |  |
| <0.5 | ≥ 336 | 2.3 |  | COc1ccc(S(=O)(=O)Nc2ccc(CN3CCN(C(=O)Cn4cccnc4=O)CC3)cc2)cc1 [Compound 18, 4-methoxy-N-(4-((4-(2-(2-oxopyrimidin-1(2H)-yl)acetyl)piperazin-1-yl)methyl)phenyl)benzenesulfonamide] | > 50.1 |  |  |  |
| 12 | 414 (≈ 199 µg/mL) | 3.2 |  | COc1ccc(S(=O)(=O)Nc2ccc(CN3CCN(C(=O)c4ccnc(C)n4)CC3)cc2)cc1 [Compound 19, 4-methoxy-N-(4-((4-(2-methylpyrimidine-4-carbonyl)piperazin-1-yl)methyl)phenyl)benzenesulfonamide] | > 50.1 |  |  |  |
| 40 | < 1 | 5.6 |  | Cc1ccc(S(=O)(=O)Nc2ccc(CN3CCN(C(=O)c4cc5ccccc5[nH]4)CC3)cc2)cc1 [Compound 23, N-(4-((4-(1H-indole-2-carbonyl)piperazin-1-yl)methyl)phenyl)-4-methylbenzenesulfonamide] | 0.2 |  |  |  |
| 37 | < 1 | 5.9 |  | COc1ccc(S(=O)(=O)Nc2ccc(OC3CCN(C(=O)c4cccc(Cl)c4)CC3)cc2)cc1 [Compound 28, N-(4-((1-(3-chlorobenzoyl)piperidin-4-yl)oxy)phenyl)-4-methoxybenzenesulfonamide] | 5.01 |  |  |  |
| 12 | 19 (≈ 9.94 µg/mL) |  | 12 | COc1ccc(S(=O)(=O)Nc2ccc(Cn3cc4c(n3)CN(C(=O)c3cccc(Cl)c3)C4)cc2)cc1 [Compound 29] |  | 4.9 | 5.0 |  |
| >50 | 51 (≈ 25.5 µg/mL) | 5.1 |  | COc1ccc(S(=O)(=O)Nc2ccc(CN3CC[C@H](NC(=O)c4cccc(Cl)c4)C3)cc2)cc1 [Compound 30, (S)-3-chloro-N-(1-(4-((4-methoxyphenyl)sulfonamido)benzyl)pyrrolidin-3-yl)benzamide] | 50.1 |  |  |  |
